In patent US12410160B2 (Gilead Sciences, Inc., priority 2021, dated 2025):
Like-named read-outs stand apart in the source and are kept apart here.

What was measured:
human KHK-C = human KHK-C (Homo sapiens (Human), UniProt P50053); experiment: KHK Biochemical Assay (IC50), ADP-Glo, KHK-C; conditions: average of at least two separate assays
Method in brief: (§1)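 ADP-Glo luminescence measured ADP made over a 4 h room-temperature reaction of ATP plus fructose, started after 30 min compound–enzyme pre-incubation. Buffer: 50 mM Hepes pH 7.4, 140 mM KCl, 5 mM MgCl2, 0.01% Triton-X. Enzyme was His-tagged, BL21 (DE3)-expressed, Ni-NTA-purified; compounds in 1:3 DMSO dilution series.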

human KHK-A = human KHK-A (Homo sapiens (Human), UniProt P50053); experiment: KHK Biochemical Assay (IC50), ADP-Glo, KHK-A; conditions: average of at least two separate assays
human KHK-A, sequence (P50053 other isoform, or with tags, fused parts or gaps): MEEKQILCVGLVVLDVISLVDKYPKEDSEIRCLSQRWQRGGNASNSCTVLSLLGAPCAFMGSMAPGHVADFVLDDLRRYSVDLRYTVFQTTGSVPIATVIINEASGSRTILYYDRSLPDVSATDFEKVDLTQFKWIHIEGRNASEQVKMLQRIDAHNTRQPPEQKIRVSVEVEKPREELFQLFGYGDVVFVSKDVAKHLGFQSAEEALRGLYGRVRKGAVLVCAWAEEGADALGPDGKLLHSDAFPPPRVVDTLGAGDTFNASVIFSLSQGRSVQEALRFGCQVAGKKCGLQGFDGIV
Method in brief: as §1

HepG2 cells = experiment: F1P Cell-Based Assay (EC50), 13C6-fructose-1-phosphate in HepG2 cells (cell culture medium or 50% human plasma); conditions: Homo sapiens
[1] = target: KHK-C expressed in NRK-52E cells (Homo sapiens (Human), UniProt P50053); experiment: KHK-C Cell-based Assay (EC50), NRK CTG, fructose-mediated ATP-depletion
KHK-C expressed in NRK-52E cells, sequence (P50053 whole entry): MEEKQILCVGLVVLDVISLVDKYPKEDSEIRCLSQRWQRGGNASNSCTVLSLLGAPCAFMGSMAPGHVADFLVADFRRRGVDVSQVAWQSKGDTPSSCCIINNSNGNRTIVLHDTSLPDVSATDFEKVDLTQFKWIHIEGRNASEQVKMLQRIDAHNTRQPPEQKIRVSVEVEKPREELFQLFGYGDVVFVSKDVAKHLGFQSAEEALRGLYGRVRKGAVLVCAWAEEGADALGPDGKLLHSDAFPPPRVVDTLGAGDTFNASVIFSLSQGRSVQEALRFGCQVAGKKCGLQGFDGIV

[2] = HepG2, HepG2 cells, 50% human plasma, read-out: F1P 50% HP EC50
[3] = HepG2, read-out: F1P 10% FBS EC50, HepG2 cells, cell culture medium (10% FBS)

human KHK-C, sequence (P50053 whole entry): as above

SMILES | IC50 (human KHK-C) | IC50 (human KHK-A) | EC50 (HepG2 cells; [2]) | EC50 (HepG2 cells; [3]) | EC50 [1]
C[C@@H]1N(c2nc(-c3ccc(C4(N)COC4)cc3)c3c(n2)C(F)(F)CC3)CC1(F)F [Example 470, (S)-3-(4-(2-(3,3-difluoro-2-methylazetidin-1-yl)-7,7-difluoro-6,7-dihydro-5H-cyclopenta[d]pyrimidin-4-yl)phenyl)oxetan-3-amine] | 1.9 nM | 6.3 nM | 51 nM | 13.4 nM | 5 nM
C[C@H]1C[C@H](C)N1c1nc(-c2ccc(C3(N)COC3)cc2)c2c(n1)C(F)(F)CC2 [Example 504, 3-(4-(2-((2S,4S)-2,4-dimethylazetidin-1-yl)-7,7-difluoro-6,7-dihydro-5H-cyclopenta[d]pyrimidin-4-yl)phenyl)oxetan-3-amine] | 2.3 nM | 10.1 nM | 34.7 nM | 9.9 nM | 11.5 nM
COc1ccc(-c2nc(N3C[C@H](F)[C@@H]3C)nc3c2CCC3(F)F)cc1[S@@](C)(=N)=O [Example 562, (S)-(5-(7,7-difluoro-2-((2S,3S)-3-fluoro-2-methylazetidin-1-yl)-6,7-dihydro-5H-cyclopenta[d]pyrimidin-4-yl)-2-methoxyphenyl)(imino)(methyl)-λ^6-sulfanone] | 1.4 nM | 0.3 nM | 3.6 nM | 1.1 nM | 5.8 nM
COc1ccc(-c2nc(N3CC(F)(F)[C@@H]3C)nc3c2CCC3(F)F)cc1[S@@](C)(=N)=O [Example 563, (S)-(5-(2-((S)-3,3-difluoro-2-methylazetidin-1-yl)-7,7-difluoro-6,7-dihydro-5H-cyclopenta[d]pyrimidin-4-yl)-2-methoxyphenyl)(imino)(methyl)-λ^6-sulfanone] | 1.7 nM | 0.2 nM | 6.7 nM | 0.6 nM | 5.1 nM
C[C@H]1[C@H](O)CN1c1nc(-c2ccc(OC(F)(F)F)c(S(C)(=N)=O)c2)c2c(n1)C(F)(F)CC2 (stereo partly drawn) [Example 564, (5-(7,7-difluoro-2-((2S,3R)-3-hydroxy-2-methylazetidin-1-yl)-6,7-dihydro-5H-cyclopenta[d]pyrimidin-4-yl)-2-(trifluoromethoxy)phenyl)(imino)(methyl)-λ^6-sulfanone] | 24.4 nM | 11.6 nM | 142 nM | 38.5 nM | 98.1 nM
C[C@H]1[C@H](O)CN1c1nc(-c2ccc3c(c2)OCC32NC(=O)OC2(C)C)c2c(n1)C(F)(F)CC2 (stereo partly drawn) [Example 565, 6-(7,7-difluoro-2-((2S,3R)-3-hydroxy-2-methylazetidin-1-yl)-6,7-dihydro-5H-cyclopenta[d]pyrimidin-4-yl)-5′,5′-dimethyl-2H-spiro[benzofuran-3,4′-oxazolidin]-2′-one] | 2.6 nM | 32.8 nM | 204 nM | 50.3 nM | 19.3 nM
COc1c(Cl)cc(-c2nc(N3C[C@@H](O)[C@@H]3C)nc3c2CCC3(F)F)cc1S(C)(=N)=O (stereo partly drawn) [Example 717, (3-chloro-5-(7,7-difluoro-2-((2S,3R)-3-hydroxy-2-methylazetidin-1-yl)-6,7-dihydro-5H-cyclopenta[d]pyrimidin-4-yl)-2-methoxyphenyl)(imino)(methyl)-λ^6-sulfanone] | > 100 nM | > 100 nM | > 500 nM | > 500 nM | > 500 nM

These reach a lower IC50 (human KHK-C). Values come first.

IC50 (human KHK-C) | IC50 (human KHK-A) | EC50 (HepG2 cells; [2]) | EC50 (HepG2 cells; [3]) | EC50 [1] | SMILES
1.1 nM | 0.2 nM | 24.6 nM | 3.5 nM | 8 nM | COc1ccc(-c2nc(N3C[C@@H](F)[C@@H]3C)nc3c2CCC3(F)F)cc1[S@@](C)(=N)=O [Example 561, (S)-(5-(7,7-difluoro-2-((2S,3R)-3-fluoro-2-methylazetidin-1-yl)-6,7-dihydro-5H-cyclopenta[d]pyrimidin-4-yl)-2-methoxyphenyl)(imino)(methyl)-λ^6-sulfanone]
0.5 nM | 16.2 nM | 213 nM | 27.1 nM | 10.3 nM | C[C@H]1[C@H](O)CN1c1nc(-c2ccc3c(c2)OCC32CN(C)C(=O)N2)c2c(n1)C(F)(F)CC2 (stereo partly drawn) [Example 695, 6-[7,7-difluoro-2-[(2S,3R)-3-hydroxy-2-methyl-azetidin-1-yl]-5,6-dihydroeyelopenta[d]pyrimidin-4-yl]-1′-methyl-spiro[2H-benzofuran-3,4′-imidazolidine]-2′-one]
0.4 nM | 24.5 nM | 109 nM | 54.3 nM | 17.2 nM | C[C@H]1[C@H](O)CN1c1nc(-c2ccc3c(c2)OCC32NC(=O)N(C3COC3)C2=O)c2c(n1)C(F)(F)CC2 (stereo partly drawn) [Example 694, 6-[7,7-difluoro-2-[(2S,3R)-3-hydroxy-2-methyl-azetidin-1-yl]-5,6-dihydroeyelopenta[d]pyrimidin-4-yl]-3′-(oxetan-3-yl)spiro[2H-benzofuran-3,5′-imidazolidine]-2′,4′-dione]
0.3 nM | 88.7 nM | 492 nM | 85.2 nM | 32.8 nM | C[C@H]1[C@H](O)CN1c1nc(-c2ccc3c(c2)OCC32NC(=O)N(CC(F)(F)F)C2=O)c2c(n1)C(F)(F)CC2 (stereo partly drawn) [Example 699, 6-[7,7-difluoro-2-[(2S,3R)-3-hydroxy-2-methyl-azetidin-1-yl]-5,6-dihydrocyclopenta[d]pyrimidin-4-yl]-3′-(2,2,2-trifluoroethyl)spiro[2H-benzofuran-3,5′-imidazolidine]-2′,4′-dione]
0.2 nM | 47.2 nM | 141 nM | 22.4 nM | 6.4 nM | CCCN1C(=O)NC2(COc3cc(-c4nc(N5C[C@@H](O)[C@@H]5C)nc5c4CCC5(F)F)ccc32)C1=O (stereo partly drawn) [Example 693, 6-[7,7-difluoro-2-[(2S,3R)-3-hydroxy-2-methyl-azetidin-1-yl]-5,6-dihydroeyelopenta[d]pyrimidin-4-yl]-3′-propyl-spiro[2H-benzofuran-3,5′-imidazolidine]-2′,4′-dione]
0.2 nM | 16.1 nM | 250 nM | 163 nM | 37.3 nM | C[C@H]1[C@H](O)CN1c1nc(-c2ccc3c(c2)OCC32CN(CCO)C(=O)N2)c2c(n1)C(F)(F)CC2 (stereo partly drawn) [Example 700, 6-[7,7-difluoro-2-[(2S,3R)-3-hydroxy-2-methyl-azetidin-1-yl]-5,6-dihydrocyclopenta[d]pyrimidin-4-yl]-1′-(2-hydroxyethyl)spiro[2H-benzofuran-3,4′-imidazolidine]-2′-one]
0.1 nM | 10.6 nM | 44.4 nM | 28.7 nM | 4.1 nM | C[C@H]1[C@H](O)CN1c1nc(-c2ccc3c(c2)CC[C@]32NC(=O)N(C)C2=O)c2c(n1)C(F)(F)CC2 [Example 488, (58)-5′-[7,7-difluoro-2-[(2S,3R)-3-hydroxy-2-methyl-azetidin-1-yl]-5,6-dihydrocyclopenta[d]pyrimidin-4-yl]-3-methyl-spiro[imidazolidine-5,1′-indane]-2,4-dione]
0.1 nM | 16.7 nM | 71 nM | 67.8 nM | 6.4 nM | C[C@H]1[C@H](O)CN1c1nc(-c2ccc3c(c2)CC[C@]32NC(=O)N(CCO)C2=O)c2c(n1)C(F)(F)CC2 [Example 686, (58)-5′-[7,7-difluoro-2-[(2S,3R)-3-hydroxy-2-methyl-azetidin-1-yl]-5,6-dihydrocyclopenta[d]pyrimidin-4-yl]-3-(2-hydroxyethyl)spiro[imidazolidine-5,1′-indane]-2,4-dione]
